Laboratory results from patent US20230123334A1, “AMINO LIPID COMPOUND, PREPARATION METHOD THEREFOR, AND APPLICATION THEREOF” (SHENZHEN SHENXIN BIOTECHNOLOGY CO., LTD., priority 2020, published 2023).

What was measured:
HEK293 cells [1] = test: Preliminary screening as mRNA vectors, EGFP mRNA transfection of HEK293 cells; type: cell-based; details: HEK293 cells, 96-well plates, EGFP mRNA 50 ng per well; percentage of GFP fluorescent cells relative to total number of cells (Hoechst)
Procedure, shortened: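 HEK293 cells in DMEM plus 10% FBS transfected in 96-well format with 50 ng EGFP mRNA per well; Lipofectamine2000 served as positive control. Read-out is the percentage of GFP-fluorescent cells among total cells, counted by Hoechst nuclear stain.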

HEK293 cells [2] = test: Preliminary screening as DNA vectors, GFP transfection of HEK293 cells; type: cell-based; details: HEK293 cells; lipid/DOPE liposome with 75 ng plasmid DNA (psin-EGFP-IRES-Puro); number of cells expressing GFP divided by total number of nuclei (Hoechst)
Procedure, shortened: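 HEK293 cells in DMEM/10% FBS transfected with 75 ng EGFP plasmid per well complexed with amino lipid/DOPE liposomes in pH 5.6 sodium acetate. Hoechst nuclear stain added 20-24 h post-transfection, then cells cultured another 20-24 h. Confocal imaging gives GFP-positive cells as % of total nuclei.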

SMILES | Absolute mRNA transfection efficiency in HEK293 cells (HEK293 cells [1]) | Absolute DNA transfection efficiency in HEK293 cells (HEK293 cells [2])
CCCCCCCCCCCCCNc1nc(NCC2CCN(C)CC2)nc(N(CCCCCCCCCCCC)CCCCCCCCCCCC)n1 [N13^2N12D10] | 0.0% | 0.0%
CCCCCCCCNc1nc(NCCCCCC)nc(NCCN(CC)CC)n1 [Compound N6N8D7] | 0.1% | 0.0%
CCCCCCCCCCSc1nc(NCCN(CC)CC)nc(SCCCCCCCCC)n1 [Compound S9S10D7] | 2.8% | 8.3%
CCCCCCCCCCCCCCCNc1nc(NCCCCCCC)nc(NCCCN(C)C)n1 [Compound N7N15D6] | 1.2% | 1.6%
CCCCCCCCCCCCCCCCCCSc1nc(NCC2CCN(C)CC2)nc(SCCCCCCCCCCCCCCCC)n1 [Compound S16S18D10] | 3.0% | 0.8%
CCCCCCCCCCCCCCCCSc1nc(NCCN(CC)CC)nc(SCCCCCCCCCCCCCC)n1 [Compound S14S16D7] | 1.8% | 1.1%
CCCCCCCNc1nc(NCCCCCC)nc(NCCN2CCOCC2)n1 [Compound N6N7D2] | 0.4% | 0.0%
CCCCCCCCCCCCNc1nc(NCCCCCCCCCCC)nc(NCC2CCN(C)CC2)n1 [Compound N11N12D10] | 0.4% | 1.8%
CCCCCCCCCCCCCCCCCCNc1nc(NCCCCCCCCCCCC)nc(NCCCN2CCOCC2)n1 [Compound N12N18D8] | 0.5% | 1.5%
CCCCCCCCCNc1nc(NCCCCCCC)nc(NCCN(CC)CC)n1 [Compound N7N9D7] | 0.0% | 0.0%
CCCCCCCCCCCCNc1nc(NCCCCCCCCCCCC)nc(NCCN(C)C)n1 [Compound N12N12D1] | 0.2% | 0.1%
CCCCCCCCCCCCCCCCNc1nc(NCCCCCCCCCCCCCCC)nc(NCCN2CCCC2)n1 [Compound N15N16D3] | 6.1% | 2.5%
CCCCCCCCCCCCCCCCNc1nc(NCCCCCCCCCCCCCCC)nc(NCCCN2CCN(C)CC2)n1 [Compound N15N16D9] | 1.7% | 2.1%
CCCCCCCCCCCCCCCNc1nc(NCCCCCCC)nc(NCCN(C)C)n1 [Compound N7N15D1] | 1.3% | 1.0%
CCCCCCCCCCCCSc1nc(NCCN2CCCCC2)nc(SCCCCCCCCCC)n1 [Compound S10S12D4] | 3.4% | 12.0%
CCCCCCCCCCCCCCCCSc1nc(NCCN2CCOCC2)nc(SCCCCCCCC)n1 [Compound S8S16D2] | 0.2% | 15.7%
CCCCCCCCCCCCNc1nc(NCCCCCCCCCCC)nc(NCCCN2CCN(C)CC2)n1 [Compound N11N12D9] | 0.3% | 0.0%
CCCCCCCCCCCCN(CCCCCCCCCCCC)c1nc(NCCCCCC)nc(NCCCN(C)C)n1 [N6^2N12D6] | 0.1% | 0.4%

SMILES | Absolute mRNA transfection efficiency in HEK293 cells (HEK293 cells [1]) | Absolute DNA transfection efficiency in HEK293 cells (HEK293 cells [2])
CCCCCCCCCCCCCNc1nc(NCCCCCCCCCCCCC)nc(NCCN2CCN(C)CC2)n1 [Compound N13N13D5] | 1.7% | 0.9%
CCCCCCCCCCCCCCCCCCSc1nc(NCCN2CCCC2)nc(SCCCCCCCCCCCCCC)n1 [Compound S14S18D3] | 0.1% | 2.8%
CCCCCCCCCCCCNc1nc(NCCCCCC)nc(NCCN2CCN(C)CC2)n1 [Compound N6N12D5] | 0.0% | 0.1%
CCCCCCCCCCCCCCCCSc1nc(NCC2CCN(C)CC2)nc(SCCCCCCCCCCCCCCCC)n1 [Compound S16S16D10] | 2.7% | 0.1%
CCCCCCCCCCCCCCCNc1nc(NCCCCCCCC)nc(NCCN2CCCCC2)n1 [Compound N8N15D4] | 0.0% | 0.5%
CCCCCCCCCCCCCCCCCCNc1nc(NCCCCCCCCCCCCCCCC)nc(NCCN2CCN(C)CC2)n1 [Compound N16N18D5] | 0.0% | 1.1%
CCCCCCCCCCCCNc1nc(NCCCCCCCCCCCC)nc(NCCCN(C)C)n1 [Compound N12N12D6] | 0.8% | 0.3%
CCCCCCCCCCCCCCCCCCNc1nc(NCCN2CCCC2)nc(N(CCCCCCCCCCCC)CCCCCCCCCCCC)n1 [N18^2N12D3] | 3.4% | 1.5%
CCCCCCCNc1nc(NCCCCCC)nc(NCCN2CCCC2)n1 [Compound N6N7D3] | 0.0% | 0.4%
CCCCCCCCCCCSc1nc(NCCN2CCN(C)CC2)nc(SCCCCCCCCC)n1 [Compound S9S11D5] | 48.6% | 11.4%
CCCCCCCCCCCCCCCCCCSc1nc(NCCN(C)C)nc(SCCCCCCCCC)n1 [Compound S9S18D1] | 2.7% | 4.9%
CCCCCCCCCCCCCCCNc1nc(NCCCCCCCCCCC)nc(NCCN2CCCC2)n1 [Compound N11N15D3] | 2.7% | 0.3%
CCCCCCCCCCCCCCCSc1nc(NCCN2CCCC2)nc(SCCCCCCCCCCCCCCC)n1 [Compound S15S15D3] | 0.2% | 0.0%
CCCCCCCCCCCCCCCNc1nc(NCCCCCCCCCCCCC)nc(NCCN2CCN(C)CC2)n1 [Compound N13N15D5] | 0.8% | 0.2%
CCCCCCCCCCCCCCCCSc1nc(NCCN2CCCC2)nc(SCCCCCCCCCCCC)n1 [Compound S12S16D3] | 0.1% | 2.0%
CCCCCCCCCCCCCCSc1nc(NCCCN2CCN(C)CC2)nc(SCCCCCCCC)n1 [Compound S8S14D9] | 13.5% | 16.0%
CCCCCCCCCCCCCCCNc1nc(NCCCN2CCOCC2)nc(N(CCCCCCCCCCCC)CCCCCCCCCCCC)n1 [N15^2N12D8] | 0.9% | 0.9%
CCCCCCCCCCSc1nc(NCCCN2CCOCC2)nc(SCCCCCCCCCC)n1 [Compound S10S10D8] | 13.8% | 14.0%
